{"source": "paper PMC9241695", "about": "“Selective Metal Chelation by a Thiosemicarbazone Derivative Interferes with Mitochondrial Respiration and Ribosome Biogenesis in Candida albicans” (Microbiology Spectrum, 2022)", "key": {"A. fumigatus 1161": {"test_system": "A. fumigatus 1161", "test": "Microbroth dilution MIC80", "format": "cell-based", "settings": "Aspergillus fumigatus, 1161", "method_in_brief": "(§1)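 CLSI microbroth dilution in RPMI1640, inoculum 1 × 10^3 CFU/mL, compounds 0.0156–64 μg/mL final, 24 h at 35 °C. MIC read as visible growth inhibition versus control, in duplicate.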"}, "C. albicans 11e": {"test_system": "C. albicans 11e", "test": "Microbroth dilution MIC80", "format": "cell-based", "settings": "Candida albicans, 11E", "method_in_brief": "(§2)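 CLSI microbroth dilution in RPMI1640 using final drug concentrations of 0.0156–64 μg/mL. C. albicans inoculum was 1 × 10^3 CFU/mL, and Candida plates were incubated at 35°C for 24 h. MIC was read as visible growth inhibition versus the drug-free control, in duplicate.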"}, "C. albicans 11f": {"test_system": "C. albicans 11f", "test": "Microbroth dilution MIC80", "format": "cell-based", "settings": "Candida albicans, 11F", "method_in_brief": "as §2"}, "C. albicans 24g": {"test_system": "C. albicans 24g", "test": "Microbroth dilution MIC80", "format": "cell-based", "settings": "Candida albicans, 24G", "method_in_brief": "as §2"}, "C. albicans 28A": {"test_system": "C. albicans 28A", "test": "Microbroth dilution MIC80", "format": "cell-based", "settings": "Candida albicans, 28A", "method_in_brief": "as §2"}, "C. albicans 28D": {"test_system": "C. albicans 28D", "test": "Microbroth dilution MIC80", "format": "cell-based", "settings": "Candida albicans, 28D", "method_in_brief": "as §2"}, "C. albicans CA3": {"test_system": "C. albicans CA3", "test": "Microbroth dilution MIC80", "format": "cell-based", "settings": "Candida albicans, CA3", "method_in_brief": "as §2"}, "C. albicans DSY654": {"test_system": "C. albicans DSY654", "test": "Microbroth dilution MIC80", "format": "cell-based", "settings": "Candida albicans", "method_in_brief": "as §2"}, "C. albicans F5": {"test_system": "C. albicans F5", "test": "Microbroth dilution MIC80", "format": "cell-based", "settings": "Candida albicans, F5", "method_in_brief": "as §2"}, "C. albicans YEM13": {"test_system": "C. albicans YEM13", "test": "Microbroth dilution MIC80", "format": "cell-based", "settings": "Candida albicans", "method_in_brief": "as §2"}, "C. albicans YEM15": {"test_system": "C. albicans YEM15", "test": "Microbroth dilution MIC80", "format": "cell-based", "settings": "Candida albicans, YEM15", "method_in_brief": "as §2"}, "C. tropicalis CT2": {"test_system": "C. tropicalis CT2", "test": "Microbroth dilution MIC80", "format": "cell-based", "settings": "Candida tropicalis, CT2", "method_in_brief": "as §1"}, "C. albicans SC5314": {"test_system": "C. albicans SC5314", "test": "Minimal fungicidal concentration (MFC)", "format": "cell-based", "settings": "Candida albicans, read-out: MFC against C. albicans SC5314"}, "C. albicans SC5314 cells": {"test_system": "C. albicans SC5314 cells", "test": "ROS production assay (DCFH-DA)", "format": "cell-based, Candida albicans", "settings": "6 h, compared with the control", "method": "ROS production assay. Logarithmic-phase C. albicans SC5314 cells (1 × 10^6 cells/mL in RPMI1640 medium) were incubated in the presence or absence of 19ak for 6 h, followed by incubation with 2′,7′-dichlorofluorescein diacetate (DCFH-DA) in the dark for 30 min. The fluorescence intensity was then measured by flow cytometry, and the data were analyzed with Win MDI 2.9 software. […]"}, "SOD": {"test_system": "SOD", "test": "SOD activity in treated cells", "format": "cell-based, Candida albicans", "settings": "0.5 μg/mL or above, 6 h", "method": "Determination of SOD activity. SOD activity was measured using the Superoxide Dismutase Activity Assay Kit (Njjcbio, Nanjing, China) following the manufacturer's instructions. An overnight culture of C. albicans SC5314 was adjusted to 1 × 10^7 cells/mL with RPMI1640 medium and treated with 19ak at a final concentration of 0, 0.125, 0.25, 0.5, or 1 μg/mL for 6 h. After collection by centrifugation, the cells were broken by glass beads in extraction buffer and centrifuged at 4°C. The absorbance of the supernatant of each sample was measured with a microplate reader at450 nm.\nDetermination of catalase (CAT) activity. CAT activity was measured by using a Catalase Assay Kit (Solarbio, Beijing, China) following the manufacturer's instructions. An overnight culture of C. albicans SC5314 was adjusted to 1 × 10^6 cells/mL with RPMI1640 medium and treated as described above for SOD activity.\nThe decomposition of H2O2 is directly accompanied by a decrease in absorbance at 240 nm, and the difference in absorbance per unit time (ΔA240) is a measure of […]\nQuantitative real-time polymerase chain reaction (qPCR) analysis. C. albicans SC5314 cells (1 × 10^6 cells/mL) were incubated with or without 19ak (0.5,2 μg/mL) in RPMI1640 medium for 6 h. Total RNA was extracted using the hot phenol method, and the RNA quality was analyzed using a spectrophotometer (Eppendorf, Hamburg, Germany). […]"}, "G. mellonella": {"test_system": "G. mellonella", "test": "Toxicity of 19ak in G. mellonella larvae", "format": "in vivo, Galleria mellonella", "settings": "10 μg per larva, 4 days", "method": "Larvae of normal size and in good condition were injected with 10 μL of 19ak (1 mg/mL) or PBS. The survival of the larvae was monitored daily for 4 days."}}}
{"molecule": "C/C(=N\\NC(=S)N(C)C)c1ccccn1", "note": "[Compound 19ak]", "values": [{"measurement": "MIC80", "setting": "A. fumigatus 1161", "result": 0.5, "unit": "µg/mL"}, {"measurement": "MIC80", "setting": "C. albicans 11e", "result": 1, "unit": "µg/mL"}, {"measurement": "MIC80", "setting": "C. albicans 11f", "result": 1, "unit": "µg/mL"}, {"measurement": "MIC80", "setting": "C. albicans 24g", "result": 0.25, "unit": "µg/mL"}, {"measurement": "MIC80", "setting": "C. albicans 28A", "result": 0.125, "unit": "µg/mL"}, {"measurement": "MIC80", "setting": "C. albicans 28D", "result": 0.125, "unit": "µg/mL"}, {"measurement": "MIC80", "setting": "C. albicans CA3", "result": 0.125, "unit": "µg/mL"}, {"measurement": "MIC80", "setting": "C. albicans DSY654", "result": 0.125, "unit": "µg/mL"}, {"measurement": "MIC80", "setting": "C. albicans F5", "result": 0.5, "unit": "µg/mL"}, {"measurement": "MIC80", "setting": "C. albicans YEM13", "result": 0.5, "unit": "µg/mL"}, {"measurement": "MIC80", "setting": "C. albicans YEM15", "result": 0.25, "unit": "µg/mL"}, {"measurement": "MIC80", "setting": "C. tropicalis CT2", "result": 0.5, "unit": "µg/mL"}, {"measurement": "MFC", "setting": "C. albicans SC5314", "result": 64, "unit": "µg/mL"}, {"measurement": "ROS formation (DCFH-DA)", "setting": "C. albicans SC5314 cells", "result": "decreased ROS"}, {"measurement": "SOD activity", "setting": "SOD", "result": "increased"}, {"measurement": "Survival of uninfected larvae (toxicity)", "setting": "G. mellonella", "result": "all treated larvae were still alive"}]}
